Reference: patent publication US20110129932A1, “Lipoprotein Assay” (L3 TECHNOLOGY LIMITED, priority 2006, published 2011)

Assays:
[1] = target: T1, Human Serum Albumin (HSA) (Homo sapiens, UniProt P02768); experiment: K-37 fluorescence bound to HSA with and without octanoate (Example 4); format: binding
Description: (§1) The dye K-37 was added at a concentration of 0.5 mM to LDL at a total lipid concentration of 5 mM, in the presence and absence of 50 mg/ml HSA. Measurements were made with and without the addition of 0.1 M sodium octanoate, which acted as a ligand binding inhibitor.

[2] = target: T1, Human Serum Albumin (HSA); experiment: Nile Red fluorescence bound to HSA with and without octanoate (Example 5); format: binding
Description: as §1
Following the findings described in Example 4, concerning the addition of octanoate to block the hydrophobic binding sites of HSA, the inventors then observed that Nile Red also binds to HSA and fluoresces. This additional fluorescence of Nile Red when bound to HSA also causes a substantial background signal, which distorts and thereby causes significant errors in the measurement of HDL. They therefore decided to block the hydrophobic binding sites in HSA with the same ligand binding inhibitor as for K-37 blocking, i.e. sodium octanoate. The experiments conducted with Nile Red and HSA, were based on those discussed in Example 4, and all using 0.5 mM Nile Red.

[3] = target: drug binding domain of HSA (Homo sapiens, UniProt P02768); experiment: Blocking the drug binding domain of HSA in the HDL/Nile red assay
Source text: This led the inventors to realise that the HDL/Nile red assay may be improved further by using an additional blocker. They tried agents that block the drug binding domain of HSA. […] The benzoic acid has the added bonus of quenching the Nile Red residual fluorescence in solution by about 20%.

[4] = Excitation and emission maxima of the dyes; format: physicochemical

T1 sequence (P02768 25-609): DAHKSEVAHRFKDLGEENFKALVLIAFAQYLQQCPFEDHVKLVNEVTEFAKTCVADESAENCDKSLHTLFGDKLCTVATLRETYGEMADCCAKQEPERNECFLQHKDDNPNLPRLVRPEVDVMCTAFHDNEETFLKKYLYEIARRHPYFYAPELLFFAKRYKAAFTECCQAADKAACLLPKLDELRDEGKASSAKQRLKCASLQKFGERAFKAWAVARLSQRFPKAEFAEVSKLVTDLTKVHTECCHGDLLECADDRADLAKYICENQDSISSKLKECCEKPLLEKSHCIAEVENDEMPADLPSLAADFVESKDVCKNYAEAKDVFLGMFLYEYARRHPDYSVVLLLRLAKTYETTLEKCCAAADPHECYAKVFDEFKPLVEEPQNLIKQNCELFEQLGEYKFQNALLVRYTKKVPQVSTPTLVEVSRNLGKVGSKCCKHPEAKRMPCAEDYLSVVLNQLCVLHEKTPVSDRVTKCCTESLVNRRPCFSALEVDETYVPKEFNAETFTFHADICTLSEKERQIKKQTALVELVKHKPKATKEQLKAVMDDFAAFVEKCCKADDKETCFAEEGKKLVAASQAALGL
drug binding domain of HSA, sequence (P02768 25-609): as above

CN(C)c1ccc(/C=C/C(=O)c2ccc(S(=O)(=O)C(F)F)cc2)cc1 [K-37, 4-dimethylamino-4′-difluoromethyl-sulphonyl-benzylidene-acetophenone]
Fluorescence Intensity ([1]; 0.5 mM K-37 plus 50 mg/ml HSA): 79300 units | Fluorescence Intensity ([1]; 0.5 mM K-37 plus 50 mg/ml HSA + 0.1 M sodium octanoate): 3600 units

CCN(CC)c1ccc2nc3c4ccccc4c(=O)cc-3oc2c1 [Nile Red]
Fluorescence Intensity ([2]; 0.5 mM Nile Red plus 50 mg/ml HSA): 58.905 units | Fluorescence Intensity ([2]; 0.5 mM Nile Red plus 50 mg/ml HSA + 50 mM octanoate): 9.118 units

O=C(O)c1ccccc1 [benzoic acid]
quenching of the Nile Red residual fluorescence in solution [3]: about 20% | displacement of Nile Red from HSA ([3]; at about 5 mM, without affecting the lipoprotein fluorescence): worked to displace the Nile Red from HSA

c1cc2ccc3cccc4ccc(c1)c2c34 [pyrene]
excitation maximum [4]: 320 nm
